Results from patent US10413583B2, “Synthetic substrates for enzymes that catalyze reactions of modified cysteines and related methods” (The University of Chicago, priority 2016, dated 2019).
“Also recorded” adds a separate entry of the source.

Assays:
HEK293T cells = experiment: Epifluorescent imaging of DPP-5 (and DPP-1, DPP-4) in HEK293T cells; type: cell-based, human
Description: 250,000 HEK293T cells/well, 120,000 HeLa cells/well, or 100,000 HepG2 cells/well were plated in 700 μL DMEM glutamax (10% FBS+1% P/S) into 4-well chambered imaging dish (D35C4-20-1.5-N, Cellvis, Mountain View, Calif., United States of America), which were precoated with 5 μg Poly-D-lysine (30-70 KDa, Alfa Aesar, Haverhill, Mass., United States of America) for 2 h. After 20-24 h, the media was replaced by 1 μM Hoechst 33342 and DMSO/5 μM PalmB in 400 μL DMEM glutamax. After 30 min of incubation at 37° C., the cells were washed with 400 μL of Live Cell Imaging Solution and replaced by 1 μM DPP-5 with DMSO or 5 μM of PalmB in Live Cell Imaging Solution. […] For data analysis, the average fluorescence intensity per image in each experimental condition was obtained by selecting ROI in Brightfield and applying that to the corresponding DPP-5 image, average background fluorescence intensity was subtracted and data was normalized to the average fluorescence intensity of the DMSO control. […]

HeLa cells = experiment: Flow cytometry of DPP-3 in HeLa cells; type: cell-based, human; details: 1 μM inhibitor, 5 μM DPP-3, 5 min
Description: Cells were plated on a 10 cm dish with 10 mL of DMEM/High Glucose (10% FBS, 1% P/S, L-Glutamine, Sodium pyruvate) 36-48 hours prior to the day of experiment and maintained at 37° C., 5% CO2 so as to obtain 80-90% confluency. Cells were washed with DPBS and trypsinized with 1 mL 0.05% Trypsin. 5 mL of DMEM/High Glucose (10% FBS, L-Glutamine, Sodium pyruvate) was added and cells were spun down at 1200 rpm for 3 min. Media was discarded and cells were resuspended in 5 mL of Live Cell Imaging Solution and again spun down at 1200 rpm for 3 min. The cells pellets obtained were resuspended in 3-5 mL of Live Cell Imaging Solution and divided into 500 μL aliquots. The aliquots were treated with either 0.2% DMSO carrier or 1 μM of PalmB/ML348 or 1 μM/5 μM of ML349 inhibitor. After 30 min of incubation at room temperature, 1 μL of 2.5 mM DPP-3 in DMSO was added to each aliquot for a final concentration of 5 μM, and the solutions were mixed. After 5 min incubation at room temperature, fluorescence signal in FITC channel was measured for 10000 cells (5000 for HeLa experiments) on a LSR-Fortessa 4-15 HTS (BD digital instrument, 488 nm laser with 530/30 nm filter for FITC; BD, Franklin Lakes, N.J., United States of America). For analyzing DPP2 in HEK293T cells, the aliquots were treated with either 0.2% DMSO carrier or 2 μM of PalmB, 5 or 20 μM of ML348/ML349 and then analyzed by the protocol as mentioned above. Data was analyzed by FlowJo software version 10.0.8. For comparison of A431 starved versus non-starved, parallel 10 cm dishes of A431 cells were plated in 10 mL of DMEM (high glucose, 10% FBS, 1% P/S), and grown for 36 h. The growth media was removed, and replaced by 10 mL of either DMEM (High glucose) with 10% FBS to maintain “growth” conditions, or DMEM (High glucose) without FBS respectively for “starvation” conditions, and incubated for 14 h. After trypsinization, both plates were treated with 5 mL of DMEM (high glucose) for spinning the cells down, and further processing and analysis were performed as described above by flow cytometry.

Compound	fluorescent signal of DPP-5 abolished (HEK293T cells; 5 μM PalmB pretreatment, 1 μM DPP-5)	effect of inhibitor on depalmitoylation signal measured by DPP-3 (HeLa cells)	probe fluorescent signal in cells (HEK293T cells; 1 μM probe for 20 minutes)
CCCCCCCCCC[C@@H]1C(=O)O[C@H]1CCc1ccc(OC)c(OC)c1 [PalmB, palmostatin B]	about 95%	knocks down the depalmitoylation signal	
O=C(CN1CCN(C(=O)c2ccco2)CC1)Nc1cc(C(F)(F)F)ccc1Cl [ML348]		knocks down the depalmitoylation signal	
CCCCCCCCCCCCCCCC(=O)SC[C@@H](C(=O)NC)N(C)C(=O)Oc1ccc2c(c1)Oc1cc(N3CCN(C(=O)CCC(=O)O)CC3)ccc1C21OC(=O)c2ccccc21 (stereo partly shown) [DPP-5]			bright, intracellular fluorescent signal; also recorded: robust fluorescent signal
